#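 96-well plates; 48 h exposure; 5 concentrations. Endpoints by linear interpolation between flanking doses. Not reached: highest tested concentration assigned. TGI denotes the concentration required for complete inhibition of growth.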
# Key:
# Assay in all cases: NCI tumour cell line growth inhibition, 48 h
# [1] = tested on: UO-31 renal
# [2] = tested on: CAKI-1 renal
# [3] = tested on: SK-MEL-2 melanoma
# [4] = tested on: A549 NSCLC
# [5] = tested on: OVCAR-4 ovarian
# [6] = tested on: SN12C renal
# [7] = tested on: SNB-75 CNS
# [8] = tested on: SNB-19 CNS
# [9] = tested on: MALME-3M melanoma
# [10] = tested on: SNB-78 CNS
# [11] = tested on: UACC-62 melanoma
# [12] = tested on: LOX IMVI melanoma
# [13] = tested on: MOLT-4 leukemia
# [14] = tested on: SK-MEL-28 melanoma
# [15] = tested on: NCI-H23 lung
# [16] = tested on: HCT-116 colon
# [17] = tested on: XF 498 CNS
# [18] = tested on: SK-OV-3 ovarian
# [19] = tested on: RXF-631 renal
# [20] = tested on: M19-MEL melanoma
# [21] = tested on: IGROV1 ovarian
# [22] = tested on: ACHN renal
# [23] = tested on: K-562 leukemia
# [24] = tested on: HOP-62 NSCLC
# [25] = tested on: SK-MEL-5 melanoma
# [26] = tested on: OVCAR-5 ovarian
# [27] = tested on: TK-10 renal
# [28] = tested on: M14 melanoma
# [29] = tested on: HCT-15 colon
# [30] = tested on: DMS 273 small cell lung
# [31] = tested on: COLO 205 colon
# [32] = tested on: RPMI-8226 leukemia
# [33] = tested on: HL-60(TB) leukemia
# [34] = tested on: SW-620 colon
# [35] = tested on: HT29 colon
# [36] = tested on: UACC-257 melanoma
# [37] = tested on: OVCAR-3 ovarian
# [38] = tested on: RXF 393 renal
# [39] = tested on: EKVX NSCLC
# [40] = tested on: NCI-H460 lung
# [41] = tested on: OVCAR-8 ovarian
# [42] = tested on: KM20L2 colon
# [43] = tested on: U251 CNS
# [44] = tested on: SF-295 CNS
# [45] = tested on: HOP-18 NSCLC
# [46] = tested on: DMS 114 small cell lung
# [47] = tested on: CCRF-CEM leukemia
# [48] = tested on: NCI-H522 lung
# [49] = tested on: A498 renal
# [50] = tested on: KM12 colon
# [51] = tested on: HOP-92 NSCLC
# [52] = tested on: SF-539 CNS
# [53] = tested on: DLD-1 colon
# [54] = tested on: P388 leukemia
# [55] = tested on: HCC-2998 colon
# [56] = tested on: SN12K1 renal
# [57] = tested on: MCF7 breast
# [58] = tested on: SF-268 CNS
# [59] = tested on: SR leukemia
# [60] = tested on: NCI-H226 lung
# [61] = tested on: 786-0 renal
# [62] = tested on: LXFL 529 NSCLC
structure (smiles),measurement,setting,value
COc1cc(C2C(C(=O)O)=C(COC(C)=O)Oc3cc4c(cc32)OCO4)cc(OC)c1OC (centres undefined),TGI,[1],> 100 µM
same,TGI,[2],> 100 µM
same,TGI,[3],> 100 µM
same,TGI,[4],> 100 µM
same,TGI,[5],> 100 µM
same,TGI,[6],> 100 µM
same,TGI,[7],> 100 µM
same,TGI,[8],> 100 µM
same,TGI,[9],> 100 µM
same,TGI,[10],> 100 µM
same,TGI,[11],> 100 µM
same,TGI,[12],> 100 µM
same,TGI,[13],> 100 µM
same,TGI,[14],> 100 µM
same,TGI,[15],> 100 µM
same,TGI,[16],> 100 µM
same,TGI,[17],> 100 µM
same,TGI,[18],> 100 µM
same,TGI,[19],> 100 µM
same,TGI,[20],> 100 µM
same,TGI,[21],> 100 µM
same,TGI,[22],> 100 µM
same,TGI,[23],> 100 µM
same,TGI,[24],> 100 µM
same,TGI,[25],> 100 µM
same,TGI,[26],> 100 µM
same,TGI,[27],> 100 µM
same,TGI,[28],> 100 µM
same,TGI,[29],> 100 µM
same,TGI,[30],> 100 µM
same,TGI,[31],> 100 µM
same,TGI,[32],> 100 µM
same,TGI,[33],> 100 µM
same,TGI,[34],> 100 µM
same,TGI,[35],> 100 µM
same,TGI,[36],> 100 µM
same,TGI,[37],> 100 µM
same,TGI,[38],> 100 µM
same,TGI,[39],> 100 µM
same,TGI,[40],> 100 µM
same,TGI,[41],> 100 µM
same,TGI,[42],> 100 µM
same,TGI,[43],> 100 µM
same,TGI,[44],> 100 µM
same,TGI,[45],> 100 µM
same,TGI,[46],> 100 µM
same,TGI,[47],> 100 µM
Cc1c2cnccc2c(C)c2c1c1ccccc1n2CCCCCCNCc1ccccc1,TGI,[1],3.79 µM
same,TGI,[2],3.48 µM
same,TGI,[3],4.24 µM
same,TGI,[48],3.63 µM
same,TGI,[4],3.74 µM
same,TGI,[49],3.85 µM
same,TGI,[5],1.25 µM
same,TGI,[50],3.08 µM
same,TGI,[6],3.27 µM
same,TGI,[7],3.9 µM
same,TGI,[8],3.75 µM
same,TGI,[9],4.61 µM
same,TGI,[10],5.08 µM
same,TGI,[11],4.16 µM
same,TGI,[12],3.81 µM
same,TGI,[13],0.7 µM
same,TGI,[14],4.41 µM
same,TGI,[15],3.64 µM
same,TGI,[16],1.92 µM
same,TGI,[17],4.37 µM
same,TGI,[18],7.24 µM
same,TGI,[51],3.64 µM
same,TGI,[20],3.95 µM
same,TGI,[21],3.85 µM
same,TGI,[52],3.61 µM
same,TGI,[23],9.36 µM
same,TGI,[24],7.14 µM
same,TGI,[53],2.92 µM
same,TGI,[25],4.29 µM
same,TGI,[26],3.31 µM
same,TGI,[54],0.732 µM
same,TGI,[55],4.86 µM
same,TGI,[29],3.25 µM
same,TGI,[56],1.9 µM
same,TGI,[30],2.47 µM
same,TGI,[57],3.22 µM
same,TGI,[31],3.07 µM
same,TGI,[32],3.44 µM
same,TGI,[33],9.35 µM
same,TGI,[58],2.76 µM
same,TGI,[34],1.67 µM
same,TGI,[35],3.13 µM
same,TGI,[36],3.61 µM
same,TGI,[37],4.01 µM
same,TGI,[38],4.08 µM
same,TGI,[39],3.94 µM
same,TGI,[40],1.86 µM
same,TGI,[42],3.33 µM
same,TGI,[43],3.79 µM
same,TGI,[44],3.47 µM
same,TGI,[45],0.923 µM
same,TGI,[46],3.94 µM
same,TGI,[47],5.13 µM
Cc1[nH]c(=O)nc(N(CCO)/N=C/c2ccccc2Cl)c1C(=O)Nc1cc(Cl)cc(Cl)c1,TGI,[1],> 100 µM
same,TGI,[2],> 100 µM
same,TGI,[3],> 100 µM
same,TGI,[48],87.9 µM
same,TGI,[49],44.5 µM
same,TGI,[5],93 µM
same,TGI,[6],> 100 µM
same,TGI,[7],63.8 µM
same,TGI,[11],> 100 µM
same,TGI,[13],> 100 µM
same,TGI,[14],> 100 µM
same,TGI,[15],> 100 µM
same,TGI,[16],59.4 µM
same,TGI,[17],> 100 µM
same,TGI,[18],49.8 µM
same,TGI,[51],69.9 µM
same,TGI,[19],> 100 µM
same,TGI,[20],> 100 µM
same,TGI,[21],> 100 µM
same,TGI,[52],60.1 µM
same,TGI,[22],> 100 µM
same,TGI,[23],> 100 µM
same,TGI,[59],> 100 µM
same,TGI,[24],59.1 µM
same,TGI,[53],> 100 µM
same,TGI,[55],> 100 µM
same,TGI,[60],53.3 µM
same,TGI,[28],> 100 µM
same,TGI,[29],> 100 µM
same,TGI,[61],46.2 µM
same,TGI,[30],> 100 µM
same,TGI,[31],> 100 µM
same,TGI,[32],> 100 µM
same,TGI,[33],> 100 µM
same,TGI,[58],> 100 µM
same,TGI,[40],> 100 µM
same,TGI,[62],> 100 µM
same,TGI,[46],> 100 µM
same,TGI,[47],> 100 µM
